Measurements from patent US20130012506A1 (priority 2010, published 2013).

What was measured:
M. tuberculosis H37Rv = format: cell-based, Mycobacterium tuberculosis
[1] = system: M. tuberculosis clinical isolates; format: cell-based, Mycobacterium tuberculosis; conditions: multi-drug-resistant and extensive-drug-resistant isolates

NNC(=O)c1ccncc1 [INH, isoniazid]
Frequency of resistance (M. tuberculosis H37Rv): 2.9×10^−6

Cc1cccn2c(=O)c(C=O)c(Nc3cccc(Cl)c3)nc12 [compound 133, 2-(3-Chlorophenylamino)-9-methyl-4-oxo-4H-pyrido[1,2-a]pyrimidine-3-carbaldehyde]
MIC values for MDR-TB and XDR-TB isolates strains [1]: within the micromolar range

O=c1c(CO)c(Nc2cccc(Cl)c2)nc2c(F)cccn12 [compound 264, 2-(3-Chlorophenylamino)-9-fluoro-3-(hydroxymethyl)-4H-pyrido[1,2-a]pyrimidin-4-one]
spontaneous mutational rate (M. tuberculosis H37Rv): 7×10^−7
